These compounds were tested on NCI-H1648 (assay: cells). Conditions: Homo sapiens, NCI-H1648.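 Further: cell viability assay measuring inhibition of NCI-H1648 cell growth, from the Sanger screening data.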
Assay type: functional, cell-based, Homo sapiens
Description: SANGER: Inhibition of human NCI-H1648 cell growth in a cell viability assay.

SMILES	IC50
COc1cc(-c2nn([C@H]3CC[C@H](N4CCN(C(C)=O)CC4)CC3)c3ncnc(N)c23)ccc1NC(=O)c1cc2ccccc2n1C	0.387 µM

Each compound was assayed on NCI-H510A (assay: cells). Conditions: Homo sapiens, NCI-H510A.
Assay type: functional, cell-based, Homo sapiens
Description: SANGER: Inhibition of human NCI-H510A cell growth in a cell viability assay.

SMILES	IC50
COc1cc(-c2nn([C@H]3CC[C@H](N4CCN(C(C)=O)CC4)CC3)c3ncnc(N)c23)ccc1NC(=O)c1cc2ccccc2n1C	4.76 µM

Each compound was assayed on SNU1 (assay: cells). Conditions: Homo sapiens, SNU1.
Assay type: functional, cell-based, Homo sapiens
Description: SANGER: Inhibition of human NCI-SNU-1 cell growth in a cell viability assay.

SMILES	IC50
COc1cc(-c2nn([C@H]3CC[C@H](N4CCN(C(C)=O)CC4)CC3)c3ncnc(N)c23)ccc1NC(=O)c1cc2ccccc2n1C	> 5.12 µM

Each compound was assayed on NKM-1 (assay: cells). Conditions: Homo sapiens, NKM-1.
Assay type: functional, cell-based, Homo sapiens
Description: SANGER: Inhibition of human NKM-1 cell growth in a cell viability assay.

SMILES	IC50
COc1cc(-c2nn([C@H]3CC[C@H](N4CCN(C(C)=O)CC4)CC3)c3ncnc(N)c23)ccc1NC(=O)c1cc2ccccc2n1C	> 5.12 µM

The compounds below were run on ONS-76 (assay: cells). Conditions: Homo sapiens, ONS-76.
Assay type: functional, cell-based, Homo sapiens
Description: SANGER: Inhibition of human ONS-76 cell growth in a cell viability assay.

SMILES	IC50
COc1cc(-c2nn([C@H]3CC[C@H](N4CCN(C(C)=O)CC4)CC3)c3ncnc(N)c23)ccc1NC(=O)c1cc2ccccc2n1C	> 5.12 µM

These compounds were tested on RPMI-8866 (assay: cells). Conditions: Homo sapiens, RPMI-8866.
Assay type: functional, cell-based, Homo sapiens
Description: SANGER: Inhibition of human RPMI-8866 cell growth in a cell viability assay.

SMILES	IC50
COc1cc(-c2nn([C@H]3CC[C@H](N4CCN(C(C)=O)CC4)CC3)c3ncnc(N)c23)ccc1NC(=O)c1cc2ccccc2n1C	> 5.12 µM

Each compound was assayed on SCC-15 (assay: cells). Conditions: Homo sapiens, SCC-15.
Assay type: functional, cell-based, Homo sapiens
Description: SANGER: Inhibition of human SCC-15 cell growth in a cell viability assay.

SMILES	IC50
COc1cc(-c2nn([C@H]3CC[C@H](N4CCN(C(C)=O)CC4)CC3)c3ncnc(N)c23)ccc1NC(=O)c1cc2ccccc2n1C	> 5.12 µM

These compounds were tested on SF-126 (assay: cells). Conditions: Homo sapiens, SF-126.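 Further: growth inhibition of human SF126 cells, read out with a cell viability assay.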
Assay type: functional, cell-based, Homo sapiens
Description: SANGER: Inhibition of human SF126 cell growth in a cell viability assay.

SMILES	IC50
COc1cc(-c2nn([C@H]3CC[C@H](N4CCN(C(C)=O)CC4)CC3)c3ncnc(N)c23)ccc1NC(=O)c1cc2ccccc2n1C	> 5.12 µM

These compounds were tested on SK-UT-1 (assay: cells). Conditions: Homo sapiens, SK-UT-1.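 Further: growth inhibition of SK-UT-1 cells, measured by a cell viability assay.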
Assay type: functional, cell-based, Homo sapiens
Description: SANGER: Inhibition of human SK-UT-1 cell growth in a cell viability assay.

SMILES	IC50
COc1cc(-c2nn([C@H]3CC[C@H](N4CCN(C(C)=O)CC4)CC3)c3ncnc(N)c23)ccc1NC(=O)c1cc2ccccc2n1C	> 5.12 µM

The compounds below were run on SNB-75 (assay: cells). Conditions: Homo sapiens, SNB-75.
Assay type: functional, cell-based, Homo sapiens
Description: SANGER: Inhibition of human SNB75 cell growth in a cell viability assay.

SMILES	IC50
COc1cc(-c2nn([C@H]3CC[C@H](N4CCN(C(C)=O)CC4)CC3)c3ncnc(N)c23)ccc1NC(=O)c1cc2ccccc2n1C	0.34 µM

These compounds were tested on SW872 (assay: cells). Conditions: Homo sapiens, SW872.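 Further: growth inhibition of SW872 cells, read out by a viability assay.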
Assay type: functional, cell-based, Homo sapiens
Description: SANGER: Inhibition of human SW872 cell growth in a cell viability assay.

SMILES	IC50
COc1cc(-c2nn([C@H]3CC[C@H](N4CCN(C(C)=O)CC4)CC3)c3ncnc(N)c23)ccc1NC(=O)c1cc2ccccc2n1C	0.452 µM

The compounds below were run on SW982 (assay: cells). Conditions: Homo sapiens, SW982.
Assay type: functional, cell-based, Homo sapiens
Description: SANGER: Inhibition of human SW982 cell growth in a cell viability assay.

SMILES	IC50
COc1cc(-c2nn([C@H]3CC[C@H](N4CCN(C(C)=O)CC4)CC3)c3ncnc(N)c23)ccc1NC(=O)c1cc2ccccc2n1C	0.387 µM

These compounds were tested on 697 (assay: cells). Conditions: Homo sapiens.
Assay type: functional, cell-based, Homo sapiens
Description: SANGER: Inhibition of human 697 cell growth in a cell viability assay.

SMILES	IC50
COc1cc(-c2nn([C@H]3CC[C@H](N4CCN(C(C)=O)CC4)CC3)c3ncnc(N)c23)ccc1NC(=O)c1cc2ccccc2n1C	1.73 µM

What follows are compounds tested on A253 cell line (assay: cells). Conditions: Homo sapiens, A253.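 Further: growth inhibition of A253 cells, read out with a cell viability assay.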
Assay type: functional, cell-based, Homo sapiens
Description: SANGER: Inhibition of human A253 cell growth in a cell viability assay.

SMILES	IC50
COc1cc(-c2nn([C@H]3CC[C@H](N4CCN(C(C)=O)CC4)CC3)c3ncnc(N)c23)ccc1NC(=O)c1cc2ccccc2n1C	> 5.12 µM

These compounds were tested on BB49-HNC (assay: cells). Conditions: Homo sapiens, BB49-HNC.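 Further: cell viability assay read-out, reported as inhibition of BB49-HNC cell growth.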
Assay type: functional, cell-based, Homo sapiens
Description: SANGER: Inhibition of human BB49-HNC cell growth in a cell viability assay.

SMILES	IC50
COc1cc(-c2nn([C@H]3CC[C@H](N4CCN(C(C)=O)CC4)CC3)c3ncnc(N)c23)ccc1NC(=O)c1cc2ccccc2n1C	> 5.12 µM

Each compound was assayed on TE-12 (assay: cells). Conditions: Homo sapiens, TE-12.
Assay type: functional, cell-based, Homo sapiens
Description: SANGER: Inhibition of human TE-12 cell growth in a cell viability assay.

SMILES	IC50
COc1cc(-c2nn([C@H]3CC[C@H](N4CCN(C(C)=O)CC4)CC3)c3ncnc(N)c23)ccc1NC(=O)c1cc2ccccc2n1C	0.404 µM

Each compound was assayed on TE-8 (assay: cells). Conditions: Homo sapiens, TE-8.
Assay type: functional, cell-based, Homo sapiens
Description: SANGER: Inhibition of human TE-8 cell growth in a cell viability assay.

SMILES	IC50
COc1cc(-c2nn([C@H]3CC[C@H](N4CCN(C(C)=O)CC4)CC3)c3ncnc(N)c23)ccc1NC(=O)c1cc2ccccc2n1C	0.242 µM

These compounds were tested on TGBC1TKB (assay: cells). Conditions: Homo sapiens, TGBC1TKB.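 Further: growth inhibition of TGBC1TKB cells, read out by a cell viability assay.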
Assay type: functional, cell-based, Homo sapiens
Description: SANGER: Inhibition of human TGBC1TKB cell growth in a cell viability assay.

SMILES	IC50
COc1cc(-c2nn([C@H]3CC[C@H](N4CCN(C(C)=O)CC4)CC3)c3ncnc(N)c23)ccc1NC(=O)c1cc2ccccc2n1C	3.63 µM

The compounds below were run on TGBC24TKB (assay: cells). Conditions: Homo sapiens, TGBC24TKB.
Assay type: functional, cell-based, Homo sapiens
Description: SANGER: Inhibition of human TGBC24TKB cell growth in a cell viability assay.

SMILES	IC50
COc1cc(-c2nn([C@H]3CC[C@H](N4CCN(C(C)=O)CC4)CC3)c3ncnc(N)c23)ccc1NC(=O)c1cc2ccccc2n1C	0.808 µM

The compounds below were run on U-266 (assay: cells). Conditions: Homo sapiens, U-266.
Assay type: functional, cell-based, Homo sapiens
Description: SANGER: Inhibition of human U-266 cell growth in a cell viability assay.

SMILES	IC50
COc1cc(-c2nn([C@H]3CC[C@H](N4CCN(C(C)=O)CC4)CC3)c3ncnc(N)c23)ccc1NC(=O)c1cc2ccccc2n1C	> 5.12 µM

These compounds were tested on VA-ES-BJ (assay: cells). Conditions: Homo sapiens, VA-ES-BJ.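 Further: growth inhibition of the VA-ES-BJ cell line, read out by a cell viability assay.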
Assay type: functional, cell-based, Homo sapiens
Description: SANGER: Inhibition of human VA-ES-BJ cell growth in a cell viability assay.

SMILES	IC50
COc1cc(-c2nn([C@H]3CC[C@H](N4CCN(C(C)=O)CC4)CC3)c3ncnc(N)c23)ccc1NC(=O)c1cc2ccccc2n1C	> 5.12 µM

What follows are compounds tested on no-11 (assay: cells). Conditions: Homo sapiens.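 Further: growth inhibition of human NO-11 cells, read out with a cell viability assay.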
Assay type: functional, cell-based, Homo sapiens
Description: SANGER: Inhibition of human no-11 cell growth in a cell viability assay.

SMILES	IC50
COc1cc(-c2nn([C@H]3CC[C@H](N4CCN(C(C)=O)CC4)CC3)c3ncnc(N)c23)ccc1NC(=O)c1cc2ccccc2n1C	> 5.12 µM

The compounds below were run on CCRF-CEM (assay: cells). Conditions: Homo sapiens, CCRF-CEM.
Assay type: functional, cell-based, Homo sapiens
Description: SANGER: Inhibition of human CCRF-CEM cell growth in a cell viability assay.

SMILES	IC50
COc1cc(-c2nn([C@H]3CC[C@H](N4CCN(C(C)=O)CC4)CC3)c3ncnc(N)c23)ccc1NC(=O)c1cc2ccccc2n1C	> 5.12 µM

Each compound was assayed on COLO-668 (assay: cells). Conditions: Homo sapiens, COLO-668.
Assay type: functional, cell-based, Homo sapiens
Description: SANGER: Inhibition of human COLO-668 cell growth in a cell viability assay.

SMILES	IC50
COc1cc(-c2nn([C@H]3CC[C@H](N4CCN(C(C)=O)CC4)CC3)c3ncnc(N)c23)ccc1NC(=O)c1cc2ccccc2n1C	> 5.12 µM

These compounds were tested on COLO-684 (assay: cells). Conditions: Homo sapiens, COLO-684.
Assay type: functional, cell-based, Homo sapiens
Description: SANGER: Inhibition of human COLO-684 cell growth in a cell viability assay.

SMILES	IC50
COc1cc(-c2nn([C@H]3CC[C@H](N4CCN(C(C)=O)CC4)CC3)c3ncnc(N)c23)ccc1NC(=O)c1cc2ccccc2n1C	> 5.12 µM

Source: ChEMBL document CHEMBL1201861, “Genomics of Drug Sensitity in Cancer screening data, Wellcome Trust Sanger Institute”
